The assay has as its target T1, Axl (Homo sapiens, UniProt P30530).
T1 construct: endogenous in cells; host or cells: HeLa cells
T1 sequence (P30530 26-894): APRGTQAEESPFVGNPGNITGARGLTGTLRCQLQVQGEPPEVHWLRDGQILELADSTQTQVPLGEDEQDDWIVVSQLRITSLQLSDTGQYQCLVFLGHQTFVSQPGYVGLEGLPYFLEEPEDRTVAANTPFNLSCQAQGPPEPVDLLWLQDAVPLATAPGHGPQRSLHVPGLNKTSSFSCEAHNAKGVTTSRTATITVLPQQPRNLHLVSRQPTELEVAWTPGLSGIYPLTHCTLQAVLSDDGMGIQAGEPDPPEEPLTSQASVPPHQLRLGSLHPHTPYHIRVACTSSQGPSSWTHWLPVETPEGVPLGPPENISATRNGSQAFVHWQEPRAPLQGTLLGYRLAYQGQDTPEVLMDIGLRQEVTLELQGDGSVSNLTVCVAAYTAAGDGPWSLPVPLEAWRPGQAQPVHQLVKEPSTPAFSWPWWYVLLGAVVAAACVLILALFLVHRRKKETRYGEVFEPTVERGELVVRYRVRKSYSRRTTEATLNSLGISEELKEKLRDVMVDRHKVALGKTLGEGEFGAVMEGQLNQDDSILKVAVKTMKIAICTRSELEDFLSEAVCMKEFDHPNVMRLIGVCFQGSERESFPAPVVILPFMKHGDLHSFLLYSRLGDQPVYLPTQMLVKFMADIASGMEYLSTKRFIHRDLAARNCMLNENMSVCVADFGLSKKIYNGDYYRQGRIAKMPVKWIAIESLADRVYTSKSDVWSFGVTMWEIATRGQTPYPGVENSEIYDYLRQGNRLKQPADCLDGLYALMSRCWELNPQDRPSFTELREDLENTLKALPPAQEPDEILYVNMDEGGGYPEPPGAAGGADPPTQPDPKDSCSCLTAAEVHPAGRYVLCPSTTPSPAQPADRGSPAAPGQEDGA
Description: Phospho-Akt In-Cell Western Assay (inhibition of Axl activity after Axl-antibody cross-linking). In kind it is cell-based. The following applies: read-out: IC50. A digest of the protocol:
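HeLa cells on poly-L-lysine, starved 24 h in 0.5% FCS DMEM with Axl/Fc 500 ng/mL, pre-treated with compound 1 h at 37 °C, then stimulated 5 min by anti-Axl/anti-mouse antibody cross-linking. Fixed cells probed for phospho-Akt with HRP secondary and chemiluminescent detection.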

Where [1] appears, read: inhibition of Axl activity, Table 1, compounds of formula (Ia).
The mark [2] stands for this setting: Hela cells, phospho-Akt chemiluminescence normalized to relative cell number, compounds of formula (Ib), Table 2.
[3] abbreviates: Hela cells, phospho-Akt chemiluminescence normalized to relative cell number, compounds of formula (Ia), Table 1.

From patent US7709482B2, “Polycyclic heteroaryl substituted triazoles useful as Axl inhibitors” (Rigel Pharmaceuticals, Inc., priority 2006, dated 2010) come the findings set out here.

Where two headings read alike, the source gives them in different places.

As for `Nc1nc(Nc2ccc3c(c2)CCC(N)CC3)nn1-c1cc2c(nn1)-c1ccccc1CCC2` (stereo not shown) [Compound 234, 1-(6,7-dihydro-5H-benzo[6,7]cyclohepta[1,2-c]pyridazin-3-yl)-N^3-(7-amino-6,7,8,9-tetrahydro-5H-benzo[7]annulene-2-yl)-1H-1,2,4-triazole-3,5-diamine], the IC50 under setting [1] was less than 1000 nM. Turning to `Cc1csc2c(-n3nc(Nc4cnc5c(c4)CCC4(CCC5)OCC(C)(C)CO4)nc3N)nc(Cl)nc12` [Compound 246, 1-(2-chloro-7-methylthieno[3,2-d]pyrimidin-4-yl)-N^3-(5′,5′-dimethyl-6,8,9,10-tetrahydro-5H-spiro[cycloocta[b]pyridine-7,2′-[1,3]dioxane]-3-yl)-1H-1,2,4-triazole-3,5-diamine], the IC50 under setting [1] is less than 1000 nM.

In the case of `CCN(CC)C1CCN(CC=Cc2ccc(Nc3nc(N)n(-c4cc5c(nn4)-c4ccccc4CCC5)n3)cc2)C1` (stereo not shown) [Compound 201, 1-(6,7-dihydro-5H-benzo[6,7]cyclohepta[1,2-c]pyridazin-3-yl)-N^3-(4-(3-diethylaminopyrrolidin-1-ylprop-1-enyl)phenyl)-1H-1,2,4-triazole-3,5-diamine], the IC50 under setting [1] is less than 1000 nM. Regarding `Cc1cc(Nc2nc(N)nn2-c2cc3c(nn2)-c2ccccc2CCC3)ccc1N1CCC(N2CCN(C)CC2)CC1` [Compound 171, 1-(6,7-dihydro-5H-benzo[6,7]cyclohepta[1,2-c]pyridazin-3-yl)-N^5-(3-methyl-4-(4-(N-methylpiperazin-4-yl)piperidin-1-yl)phenyl)-1H-1,2,4-triazole-3,5-diamine], under setting [2], the IC50 is more than 20000 nM. `COc1cc2c(cc1OC)-c1nnc(-n3nc(Nc4ccc(N5CCC(N6CCCC6)CC5)c(F)c4)nc3N)cc1CCC2` [Compound 64, 1-(6,7-dihydro-5H-9,10-dimethoxybenzo[6,7]cyclo-hepta[1,2-c]pyridazin-3-yl)-N^3-(3-fluoro-4-(4-pyrrolidin-1-yl-piperidin-1-yl)phenyl)-1H-1,2,4-triazole-3,5-diamine]: the IC50 under setting [3] was 1000 to 10000 nM.

`Nc1nc(Nc2ccc(N3CCC(N4CC5CN(C6CCCCC6)CC5C4)CC3)c(F)c2)nn1-c1cc2c(nn1)-c1ccccc1CCC2` (stereo not shown) [Compound 88, 1-(6,7-dihydro-5H-benzo[6,7]cyclohepta[1,2-c]pyridazin-3-yl)-N^3-(3-fluoro-4-(4-(5-cyclohexyl-octahydropyrrolo[3,4-c]pyrrolyl)piperidin-1-yl)phenyl)-1H-1,2,4-triazole-3,5-diamine]: under setting [3], the IC50 is less than 1000 nM. With `Nc1nc(Nc2ccc(C=CCN3CCC(N4CCCCC4)CC3)cc2)nn1-c1cc2c(nn1)-c1ccccc1CCC2` [Compound 197, 1-(6,7-dihydro-5H-benzo[6,7]cyclohepta[1,2-c]pyridazin-3-yl)-N^3-(4-(4-(piperidin-1-yl)piperidin-1-ylprop-1-enyl)phenyl)-1H-1,2,4-triazole-3,5-diamine], the IC50 under setting [1] fell in the range of 1000 to 10000 nM. Turning to `CC(C)N1CCN(Cc2ccc(Nc3nc(N)nn3-c3cc4c(nn3)-c3ccccc3CCC4)cc2)CC1` [Compound 167, 1-(6,7-dihydro-5H-benzo[6,7]cyclohepta[1,2-c]pyridazin-3-yl)-N^5-(4-((4-isopropylpiperazinyl)methyl)phenyl)-1H-1,2,4-triazole-3,5-diamine], under setting [2], the IC50 is 1000 to 10000 nM. For the compound `CC1(C)COC2(CCCc3ncc(Nc4nc(N)n(-c5cc6c(nn5)-c5ccccc5CCC6)n4)cc3CC2)OC1` [Compound 247, 1-(6,7-dihydro-5H-benzo[6,7]cyclohepta[1,2-c]pyridazin-3-yl)-N^3-(5′,5′-dimethyl-6,8,9,10-tetrahydro-5H-spiro[cycloocta[b]pyridine-7,2′-[1,3]dioxane]-3-yl)-1H-1,2,4-triazole-3,5-diamine], the IC50 under setting [1] is more than 20000 nM.

Regarding `Nc1nc(Nc2ccc(N3CC[C@H]4CCCC[C@@H]4C3)c(F)c2)nn1-c1cc2c(nn1)-c1ccccc1CCC2` [Compound 127, 1-(6,7-dihydro-5H-benzo[6,7]cyclohepta[1,2-c]pyridazin-3-yl)-N^3-(3-fluoro-4-((4aR,8aS)-decahydroisoquinolin-2-yl)phenyl)-1H-1,2,4-triazole-3,5-diamine], the IC50 under setting [3] lay within 1000 to 10000 nM. Turning to `Nc1nc(Nc2ccc(N3CCCCC(N4CCCC4)C3)c(F)c2)nn1-c1cc2c(nn1)-c1ccccc1CCC2` (stereo not shown) [Compound 69, 1-(6,7-dihydro-5H-benzo[6,7]cyclohepta[1,2-c]pyridazin-3-yl)-N^3-(3-fluoro-4-(3-pyrrolidin-1-yl-azepan-1-yl)phenyl)-1H-1,2,4-triazole-3,5-diamine], the IC50 under setting [3] is less than 1000 nM. Take `Nc1nc(Nc2ccc(C=CCN3CCCC3)cc2)nn1-c1cc2c(nn1)-c1ccccc1CCC2` [Compound 199, 1-(6,7-dihydro-5H-benzo[6,7]cyclohepta[1,2-c]pyridazin-3-yl)-N^3-(4-(pyrrolidin-1-ylprop-1-enyl)phenyl)-1H-1,2,4-triazole-3,5-diamine]: the IC50 under setting [1] was less than 1000 nM.

Take `Nc1nc(Nc2ccc(OCCN3CCCC3)c(F)c2)nn1-c1ncc2c(n1)-c1ccccc1CCC2` [Compound 44, 1-(6,7-dihydro-5H-benzo[6,7]cyclohepta[1,2-d]pyrimidin-2-yl)-N^3-(3-fluoro-4-(2-(pyrrolidin-1-yl)ethoxy)phenyl)-1H-1,2,4-triazole-3,5-diamine]: the IC50 under setting [3] was less than 1000 nM. Regarding `N#Cc1cccc(-c2ccc(Nc3nc(N)n(-c4cc5c(nn4)-c4ccccc4CCC5)n3)cn2)c1` [Compound 96, 1-(6,7-dihydro-5H-benzo[6,7]cyclohepta[1,2-c]pyridazin-3-yl)-N^3-(6-(3-cyanophenyl)pyridine-3-yl)-1H-1,2,4-triazole-3,5-diamine], the IC50 under setting [3] is more than 20000 nM. For `Nc1nc(Nc2ccc(N3CCCC(N4CCCC4)CC3)c(F)c2)nn1-c1cc2c(nn1)-c1ccccc1CCC2` (stereo not shown) [Compound 77, 1-(6,7-dihydro-5H-benzo[6,7]cyclohepta[1,2-c]pyridazin-3-yl)-N^3-(3-fluoro-4-(4-pyrrolidin-1-yl-azepan-1-yl)phenyl)-1H-1,2,4-triazole-3,5-diamine], under setting [3], the IC50 is less than 1000 nM. Still for that read-out and setting: the figure for `Nc1nc(Nc2ccc(CN3CCN(C4CCCC4)CC3)cc2)nn1-c1cc2c(nn1)-c1ccccc1CCC2` [Compound 104, 1-(6,7-dihydro-5H-benzo[6,7]cyclohepta[1,2-c]pyridazin-3-yl)-N^3-(4-((4-cyclopentylpiperazinyl)-methyl)phenyl)-1H-1,2,4-triazole-3,5-diamine] is less than 1000 nM; for `Nc1nc(Nc2ccc(N3CCC(CN4CCCC4)CC3)c(F)c2)nn1-c1cc2c(nn1)-c1ccccc1CCC2` [Compound 124, 1-(6,7-dihydro-5H-benzo[6,7]cyclohepta[1,2-c]pyridazin-3-yl)-N^3-(3-fluoro-4-(4-(pyrrolidinylmethyl)-piperidinyl)phenyl)-1H-1,2,4-triazole-3,5-diamine] it is less than 1000 nM; for `CS(=O)(=O)Nc1cccc(-c2ccc(Nc3nc(N)n(-c4cc5c(nn4)-c4ccccc4CCC5)n3)cn2)c1` [Compound 98, 1-(6,7-dihydro-5H-benzo[6,7]cyclohepta[1,2-c]pyridazin-3-yl)-N^3-(6-(3-methylsulfonamidylphenyl)-pyridine-3-yl)-1H-1,2,4-triazole-3,5-diamine] it is more than 20000 nM. Regarding `Nc1nc(Nc2ccc(N3CCC(N4CCCC4)CC3)c(F)c2)nn1-c1cc2c(nn1)-c1ccccc1CCC2` [Compound 177, 1-(6,7-dihydro-5H-benzo[6,7]cyclohepta[1,2-c]pyridazin-3-yl)-N^3-(3-fluoro-4-(4-pyrrolidin-1-ylpiperidin-1-yl)phenyl)-1H-1,2,4-triazole-3,5-diamine], under setting [1], the IC50 is less than 1000 nM.

With `Nc1nc(Nc2ccc(I)nc2)nn1-c1cc2c(nn1)-c1ccccc1CCC2` [Compound 92, 1-(6,7-dihydro-5H-benzo[6,7]cyclohepta[1,2-c]pyridazin-3-yl)-N^3-(6-iodopyridin-3-yl)-1H-1,2,4-triazole-3,5-diamine], the IC50 under setting [3] is more than 20000 nM. Turning to `CN1CCN(c2ccc(Nc3nc(N)n(C4=Nc5ccccc5Sc5ccccc54)n3)cc2)CC1` [Compound 50, 1-((Z)-dibenzo[b,f][1,4]thiazepin-11-yl)-N^3-(4-(N-methylpiperazin-1-yl)phenyl)-1H-1,2,4-triazole-3,5-diamine], the IC50 under setting [3] fell in the range of 1000 to 10000 nM. As for `Nc1nc(Nc2cccnc2)nn1-c1cc2c(nn1)-c1ccccc1CCC2` [Compound 93, 1-(6,7-dihydro-5H-benzo[6,7]cyclohepta[1,2-c]pyridazin-3-yl)-N^3-(pyridin-3-yl)-1H-1,2,4-triazole-3,5-diamine], under setting [3], the IC50 was more than 20000 nM.

The IC50 is the concentration that inhibits the measured activity by half.
